Experimental data as given in US6610694B1, “Condensed pyridazine compounds, their production and use” (Takeda Chemical Industries, Ltd., priority 1998, dated 2003).
Where a name gives a salt, the structure may show the parent alone.

Columns and labels:
[1] = system: histamine-induced skin reactions in guinea pigs; assay: Effect on histamine-induced skin reactions in guinea pigs (skin vascular permeability); assay type: in vivo, guinea pig; details: oral 3 mg/kg
Description: Effect on Histamine-induced Skin Reactions in Guinea Pigs
Male Hartley guinea pigs weighing about 500 g were used. After the dorsal hair was shaved under ether anesthesia, 1 ml of a 2.5% pontamine sky blue solution was injected intravenously administered, and then 0.1 ml of histamine at 3 μg/ml was injected intradermally into 2 sites (left and right) in the back. Thirty minutes after the injection of histamine, the animals were killed by bleeding and the skin was removed. Two perpendicular diameters (mm) of each blue spot on the inside of the skin were measured and multiplied; the mean for the two products was taken as the microvascular permeability index. Test compounds were suspended in a 5% gum arabic solution and orally administered in a volume of 0.2 ml/100 g body weight 1 hour before histamine administration. Animals in the control group received the same volume of a 5% gum arabic solution. The suppression rate of the sample for the title reaction was calculated using Equation 1, and the results are given in Table 1.
Inhibition (%) of histamine-induced skin reactions=100×(1−vascular permeability index in the presence of drug/vascular permeability index in control group) Equation 1
In the same manner as Experimental Example 1a, the effects of various example compounds on histamine-induced skin reactions in guinea pigs were examined.

guinea pig eosinophils = assay: Suppression of LTB4-induced chemotactic reaction in guinea pig eosinophils; assay type: cell-based
Description: 1) Preparation of Guinea Pig Eosinophils
To male Hartley guinea pigs, 2 ml of equine serum (Bio-Whittaker, Inc.) was intraperitoneally administered once weekly for 8 consecutive weeks. At 48 hours after final administration, 75 ml of physiological saline was intraperitoneally injected, after which the saline was recovered and centrifuged at 400×g for 5 minutes. The resulting sediment was suspended in 5 ml of Percoll solution (density (d)=1.07) and layered on top of the multiple layers of different densities of Percoll solution (density(d)=1.112, 5 ml; d=1.095, 10 ml; d=1.090, 10 ml; d=1.085, 5 ml), followed by centrifugation at 1,000×g for 25 minutes (20° C.). The cell layer formed at the interface between densities 1.112 and 1.095 was collected. Erythrocytes present in the collected cell sediment were removed by hypotonic treatment (suspended in water for […]).
The cell sediment was washed 3 times with Hanks' solution containing 10 mM Hepes (Dojin Kagaku) (Hanks-Hepes) and suspended in a Hanks-Hepes solution containing 2% human serum albumin (Wako Pure Chemical Industry or Sigma) (Hanks-Hepes-HSA) to a final concentration of 5.56×10^6 cells/ml. Eosinophil purity was 90%, viability being over 98%.
2) Determination of Chemotactic Reaction Suppression
To a 24-well petri dish, which serves as a lower chamber, 600 μl of Hanks-Hepes-HSA solution containing LTB4 (final concentration 10^−8 M, Cascade Biochemical Ltd.), was transferred, followed by incubation at 37° C. for 30 minutes in a carbon dioxide incubator. Separately, 200 μl of eosinophil suspension (5×10^6 cells/ml), previously incubated at 37 C for 15 minutes, was added to Chemotaxicell (polycarbonate membrane, pore size 3 μm, thickness 10 μm), which serves as an upper chamber, after the upper chamber was attached to the 24-well petri dish. After 2 hours of reaction in the CO2 incubator, the Chemotaxicell was removed; 60 μl of a 2% (w/v) solution of EDTA in physiological saline was added to the liquid in the lower chamber. After the mixture was on cooled ice, the cells migrating into the lower chamber were counted using a blood cell counter [Coulter Counter (trade name)]. The test drug, dissolved in N,N-dimethyl formamide (DMF), was added to both the upper and lower chambers to a final concentration of 10^-5 M.
Chemotactic reaction suppression rate=[1−(number of migrating cells in the presence of drug/number of migrating cells in the absence of drug).]×100 Equation 2
Suppression rates of LTB4-induced chemotactic reaction by test substances (1×10^−5 M) were calculated using the above equation.
In the same manner as Experimental Example 2a, the percent suppression of LTB4-induced chemotactic reactions by various example compounds was calculated.

[2] = 1 hour before intradermal histamine, Table 1
[3] = LTB4 10^−8 M-induced chemotaxis, test substance 1×10^−5 M, Table 2
[4] = same manner as Experimental Example 1a, Table 3
[5] = LTB4-induced chemotaxis, same manner as Experimental Example 2a (1×10^−5 M), Table 4

SMILES | Suppression (%) of histamine-induced skin vascular permeability elevation, oral administration at 3 mg/kg [1, 2] [%] | melting point [°C] | Suppression rate (%) (guinea pig eosinophils; [3]) | Suppression (%) of histamine-induced skin vascular permeability elevation, oral administration at 3 mg/kg [1, 4] [%] | Suppression rate (%) (guinea pig eosinophils; [5])
O=C(O)c1nnc2ccc(NCCCN3CCC(OC(c4ccccc4)c4ccccc4)CC3)nn12 [Example 22a, 6-[3-[4-(Diphenylmethoxy)piperidino]propylamino][1,2,4]triazolo[4,3-b]pyridazine-3-carboxylic Acid] | 86 | 102 to 104 | 50 |  | 
c1ccc(C(OC2CCN(CCCCCCNc3ccc4nncn4n3)CC2)c2ccccc2)cc1 [Example 10a, 6-[6-[4-(Diphenylmethoxy)piperidino]hexylamino][1,2,4]triazolo[4,3-b]pyridazine] | 91 | 124 to 127 | 60 |  | 
c1ccc(C(OC2CCN(CCCCCCOc3ccc4nncn4n3)CC2)c2ccccc2)cc1 [Example 7a, 6-[6-[4-(Diphenylmethoxy)piperidino]hexyloxy][1,2,4]triazolo[4,3-b]pyridazine Fumarate] | 89 |  | 36 |  | 
CCOC(=O)Cn1nc2ccc(NCCCN3CCC(OC(c4ccccc4)c4ccccc4)CC3)nn2c1=O [Example 7b, ethyl 2-[6-[3-[4-(Diphenylmethoxy)piperidino]propylamino]-3-oxo[1,2,4]triazolo[4,3-b]pyridazin-2(3H)-yl]acetate] |  | 137 to 139 |  | 89 | 26
CCOC(=O)C(C)(C)n1nc2ccc(NCCCN3CCC(OC(c4ccccc4)c4ccccc4)CC3)nn2c1=O.Cl [Example 8b, Ethyl 2-[6-[3-[4-(Diphenylmethoxy)piperidino]propylamino]-3-oxo[1,2,4]triazolo[4,3-b]pyridazin-2(3H)-yl]-2-methylpropionate Hydrochloride] |  | 162 |  | 74 | 57
